*1 amine or outer side, *2 acyl side, *3 side chain or, on linkers, in order; H or OH if unused. Where a SMILES comes first, the peptide text is derived from it. Bridges are numbered along the chain shown (N, C = ends). [ ]: non-standard residue; d: D form. The star is where a group is joined. hPhe(3-Cl-4-CF3) = N[C@@H](CCc1ccc(C(F)(F)F)c(Cl)c1)C(=O)O; X20 = CCCN([C@@H](CC1CCC(F)(F)CC1)C(=O)[*:2])[*:1]; NMeGly(cPent) = CN[C@H](C(=O)O)C1CCCC1; NMeD = CN[C@@H](CC(=O)O)C(=O)O; NMeL = CN[C@@H](CC(C)C)C(=O)O; Morpholide = C1CN(*)CCO1; Ac5c = NC1(C(=O)O)CCCC1; Sar = CNCC(=O)O
What was measured:
[1] = biological target: GDP-bound HRAS wild-type protein (Homo sapiens, UniProt P01112); test: Binding to HRAS by surface plasmon resonance (SPR), Single Cycle Kinetics; conditions: for HRAS/KRAS (ratio of KD value with respect to HRAS to KD value with respect to KRAS) / HRAS/KRAS (ratio of KD value for HRAS to KD value for KRAS): GDP-bound HRAS wild-type vs GDP-bound KRAS wild-type
[2] = biological target: GDP-bound NRAS wild-type protein (Homo sapiens, UniProt P01111); test: Binding to NRAS by surface plasmon resonance (SPR), Single Cycle Kinetics; conditions: for NRAS/KRAS (ratio of KD value with respect to NRAS to KD value with respect to KRAS) / NRAS/KRAS (ratio of KD value for NRAS to KD value for KRAS): GDP-bound NRAS wild-type vs GDP-bound KRAS wild-type
GDP-bound NRAS wild-type protein, sequence (P01111 whole entry): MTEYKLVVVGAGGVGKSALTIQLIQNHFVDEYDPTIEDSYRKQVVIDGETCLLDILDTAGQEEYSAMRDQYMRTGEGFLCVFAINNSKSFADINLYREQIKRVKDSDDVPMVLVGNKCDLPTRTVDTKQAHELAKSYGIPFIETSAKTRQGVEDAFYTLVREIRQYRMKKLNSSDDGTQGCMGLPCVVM

GDP-bound HRAS wild-type protein, sequence (P01112 whole entry): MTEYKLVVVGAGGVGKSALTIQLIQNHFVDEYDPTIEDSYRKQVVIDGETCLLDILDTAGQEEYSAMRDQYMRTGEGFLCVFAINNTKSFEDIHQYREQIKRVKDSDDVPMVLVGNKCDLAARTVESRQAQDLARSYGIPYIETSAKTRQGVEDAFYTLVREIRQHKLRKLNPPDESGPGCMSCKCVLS

## CC[C@H](C)[C@@H]1NC(=O)[C@H](CC)N(C)C(=O)C[C@@H](C(=O)N(C)C)N(CC)C(=O)[C@H](C2CCCC2)N(C)C(=O)C2(CCC2)NC(=O)[C@@H]2CCCCN2C(=O)[C@H](CCc2cc(F)c(C(F)(F)F)c(F)c2)NC(=O)CN(C)C(=O)[C@H](Cc2ccc(C(F)(F)F)cc2)N2CCCC[C@@H](C2=O)N(C)C(=O)CN(C)C1=O [PP0661]
[1]; SPR
  HRAS/KRAS (ratio of KD value with respect to GDP-bound HRAS wild-type protein to KD value with respect to KRAS): B (a compound having 3 or more and less than 10 is denoted as B)
[2]; SPR
  NRAS/KRAS (ratio of KD value with respect to GDP-bound NRAS wild-type protein to KD value with respect to KRAS): C (A compound having a KD ratio of 0.1 or more and less than 3 is denoted as C)

## CCC[C@H]1C(=O)N[C@@H]([C@@H](C)CC)C(=O)N(C2CC2)CC(=O)N(C)[C@H]2C/C=C\CCN(C2=O)[C@@H](Cc2ccc(C)cc2)C(=O)N(C)CC(=O)N[C@@H](CCc2cc(F)c(C(F)(F)F)c(F)c2)C(=O)N2C[C@H](OC3CCC3)C[C@H]2C(=O)NC2(CC(C)(C)C2)C(=O)N(C)[C@@H](C2CCCC2)C(=O)N(C)[C@H](C(=O)N(C)C)CC(=O)N1C [PP2614]
[1]; class symbols
  HRAS/KRAS (ratio of KD value with respect to GDP-bound HRAS wild-type protein to KD value with respect to KRAS): A (a compound having 10 or more and less than 20 is denoted as A)
[2]; class symbols
  NRAS/KRAS (ratio of KD value with respect to GDP-bound NRAS wild-type protein to KD value with respect to KRAS): A (a compound having 10 or more and less than 20 is denoted as A)

## CCO[C@@H]1C[C@H]2C(=O)NC3(CCC3)C(=O)N(C)[C@@H](C3CCCC3)C(=O)N(C)[C@H](C(=O)N3CCOCC3)CC(=O)N(C)[C@@H](CCOC)C(=O)N[C@@H]([C@@H](C)CC)C(=O)N(C)CC(=O)N(C)[C@H]3CCCCN(C3=O)[C@@H](Cc3ccc(C(F)(F)F)cc3)C(=O)N(C)CC(=O)N[C@@H](CCc3cc(F)c(C(F)(F)F)c(F)c3)C(=O)N2C1 [PP0720]
[1]; SPR
  HRAS/KRAS (ratio of KD value with respect to GDP-bound HRAS wild-type protein to KD value with respect to KRAS): B (a compound having 3 or more and less than 10 is denoted as B)
[2]; SPR
  NRAS/KRAS (ratio of KD value with respect to GDP-bound NRAS wild-type protein to KD value with respect to KRAS): C (A compound having a KD ratio of 0.1 or more and less than 3 is denoted as C)

## CC[C@H](C)[C@@H]1NC(=O)[C@H](CC(C)C)N(C)C(=O)C[C@@H](C(=O)N2CCOCC2)N(C)C(=O)[C@H](C2CCCC2)N(C)C(=O)C2(CCCC2)NC(=O)[C@@H]2CCCN2C(=O)[C@H](CCc2ccc(C(F)(F)F)c(Cl)c2)NC(=O)CN(C)C(=O)[C@H](Cc2ccc(C)cc2)N2CC/C=C\C[C@@H](C2=O)N(C)C(=O)CN(C)C1=O [PP0461]
[1]; SPR
  HRAS/KRAS (ratio of KD value with respect to GDP-bound HRAS wild-type protein to KD value with respect to KRAS): A (a compound having 10 or more and less than 20 is denoted as A)
[2]; SPR
  NRAS/KRAS (ratio of KD value with respect to GDP-bound NRAS wild-type protein to KD value with respect to KRAS): A (a compound having 10 or more and less than 20 is denoted as A)

## CCO[C@@H]1C[C@H]2C(=O)NC3(CCC3)C(=O)N(C)[C@@H](C3CCCC3)C(=O)N(C)[C@H](C(=O)N(C)C)CC(=O)N(C)[C@@H](CC3CCCC3)C(=O)N[C@@H]([C@@H](C)CC)C(=O)N(C)CC(=O)N(C)[C@H]3C/C=C\CCN(C3=O)[C@@H](Cc3ccc(C)cc3)C(=O)N(C)CC(=O)N[C@@H](CCc3ccc(C(F)(F)F)c(C4CC4)c3)C(=O)N2C1 [PP2681]
[1]; class symbols
  HRAS/KRAS (ratio of KD value with respect to GDP-bound HRAS wild-type protein to KD value with respect to KRAS): A (a compound having 10 or more and less than 20 is denoted as A)
[2]; class symbols
  NRAS/KRAS (ratio of KD value with respect to GDP-bound NRAS wild-type protein to KD value with respect to KRAS): A (a compound having 10 or more and less than 20 is denoted as A)

## CCC[C@H]1C(=O)N[C@@H]([C@@H](C)CC)C(=O)N(C2CC2)CC(=O)N(C)[C@H]2C/C=C\CCN(C2=O)[C@@H](CC2CCC(F)(F)CC2)C(=O)N(C)CC(=O)N[C@@H](CCc2ccc(C(F)(F)F)c(OC)c2)C(=O)N2C[C@H](OCC)C[C@H]2C(=O)N(C)C2(CCC2)C(=O)N(C)[C@@H](C(CC)CC)C(=O)N(C)[C@H](C(=O)N(C)C)CC(=O)N1C [PP2349]
[1]; SPR
  HRAS/KRAS (ratio of KD value with respect to HRAS to KD value with respect to KRAS): A (a compound having 10 or more and less than 20 is denoted as A)
[2]; SPR
  NRAS/KRAS (ratio of KD value with respect to NRAS to KD value with respect to KRAS): A (a compound having 10 or more and less than 20 is denoted as A)

## CC[C@H](C)[C@@H]1NC(=O)[C@H](C(C)C)N(C)C(=O)C[C@@H](C(=O)N(C)CC)N(C)C(=O)[C@H](C2CCCC2)N(C)C(=O)C2(CC(C)(C)C2)NC(=O)[C@@H]2C[C@H](C)CN2C(=O)[C@H](CCc2ccc(C(F)(F)F)c(OC)c2)NC(=O)CN(C)C(=O)[C@H](Cc2ccc(C(F)(F)F)cc2)N2CC/C=C\C[C@@H](C2=O)N(C)C(=O)CN(C)C1=O [PP2003]
[1]; SPR
  HRAS/KRAS (ratio of KD value for HRAS to KD value for KRAS): B (a compound having 3 or more and less than 10 is denoted as B)
[2]; SPR
  NRAS/KRAS (ratio of KD value for NRAS to KD value for KRAS): A (a compound having 10 or more and less than 20 is denoted as A)

## CCO[C@@H]1C[C@H]2C(=O)NC3(CCC3)C(=O)N(C)[C@@H](C3CCCC3)C(=O)N(C)[C@H](C(=O)N(C)C)CC(=O)N(CC)[C@@H](CC(C)C)C(=O)N[C@@H]([C@@H](C)CC)C(=O)N(C)CC(=O)N(C)[C@H]3C/C=C\CCN(C3=O)[C@@H](Cc3ccc(C(F)(F)F)cc3)C(=O)N(C)CC(=O)N[C@@H](CCc3cc(F)c(C(F)(F)F)c(F)c3)C(=O)N2C1 [PP1765]
[1]; SPR
  HRAS/KRAS (ratio of KD value for HRAS to KD value for KRAS): A (a compound having 10 or more and less than 20 is denoted as A)
[2]; SPR
  NRAS/KRAS (ratio of KD value for NRAS to KD value for KRAS): A (a compound having 10 or more and less than 20 is denoted as A)

## CCC[C@H]1C(=O)N[C@@H](CC(C)C)C(=O)N(CCOC)CC(=O)N(C)[C@H]2C/C=C\CCN(C2=O)[C@@H](Cc2ccc(C)cc2)C(=O)N(C)CC(=O)N[C@@H](CCc2cc(F)c(C(F)(F)F)c(F)c2)C(=O)N2C[C@H](OCC)C[C@H]2C(=O)NC2(CC(C)(C)C2)C(=O)N(C)[C@@H](C2CCCC2)C(=O)N(C)[C@H](C(=O)N(C)C)CC(=O)N1C [PP2520]
[1]; SPR
  HRAS/KRAS (ratio of KD value with respect to HRAS to KD value with respect to KRAS): A (a compound having 10 or more and less than 20 is denoted as A)
[2]; SPR
  NRAS/KRAS (ratio of KD value with respect to NRAS to KD value with respect to KRAS): A (a compound having 10 or more and less than 20 is denoted as A)

## CCCN1C(=O)CN(C)C(=O)CN(C)C(=O)[C@H]([C@@H](C)CC)NC(=O)[C@H](CC(C)C)N(C)C(=O)C[C@@H](C(=O)N2CCOCC2)N(C)C(=O)[C@H](C2CCCC2)N(C)C(=O)C2(CCCC2)NC(=O)[C@@H]2CCCN2C(=O)[C@H](CCc2ccc(C(F)(F)F)c(Cl)c2)NC(=O)CN(C)C(=O)[C@@H]1CC1CCC(F)(F)CC1 [PP0526] ([NMeL]I[Sar][Sar][X20][Sar][hPhe(3-Cl-4-CF3)]P[Ac5c][NMeGly(cPent)][NMeD]-Morpholide; lactam N-11)
[1]; SPR
  HRAS/KRAS (ratio of KD value with respect to GDP-bound HRAS wild-type protein to KD value with respect to KRAS): C (A compound having a KD ratio of 0.1 or more and less than 3 is denoted as C)
[2]; SPR
  NRAS/KRAS (ratio of KD value with respect to GDP-bound NRAS wild-type protein to KD value with respect to KRAS): B (a compound having 3 or more and less than 10 is denoted as B)

## CC[C@H](C)[C@@H]1NC(=O)[C@H](COC)N(C)C(=O)C[C@@H](C(=O)N(CC)CC)N(C)C(=O)[C@H](C2CCCC2)N(C)C(=O)C2(CC(C)(C)C2)NC(=O)[C@@H]2C[C@H](C)CN2C(=O)[C@H](CCc2ccc(C(F)(F)F)c(Cl)c2)NC(=O)CN(C)C(=O)[C@H](Cc2ccc(C)cc2)N2CC/C=C\C[C@@H](C2=O)N(C)C(=O)CN(C)C1=O [PP2399]
[1]; SPR
  HRAS/KRAS (ratio of KD value with respect to HRAS to KD value with respect to KRAS): A (a compound having 10 or more and less than 20 is denoted as A)
[2]; SPR
  NRAS/KRAS (ratio of KD value with respect to NRAS to KD value with respect to KRAS): AA (a compound having 20 or more is denoted as AA)

From patent publication US20250230193A1, “CYCLIC COMPOUND HAVING SELECTIVE KRAS INHIBITORY EFFECT ON HRAS AND NRAS” (CHUGAI SEIYAKU KABUSHIKI KAISHA, priority 2022, published 2025)
